Test results reported in US20150051202A1, “TRIAZOLOPYRAZINE DERIVATIVES” (Merck Patent GmbH, priority 2012, published 2015).

What was measured:
SYK = molecular target: T1, SYK (Homo sapiens, UniProt P43405); test: SYK enzyme assay (Flash plate assay / Caliper mobility shift assay); format: biochemical
T1 construct: purchased BPS Bioscience, CA, USA
Procedure: The kinase assay is performed either as 384-well Flashplate assay (for e.g. Topcount measurement) or as 384-well Image-Flashplate assay (for LEADseeker measurement).
2.5 nM SYK, 400 nM Biotin-Aha-Aha-[…]
and 10 μM ATP (spiked with 0.3 μCi 33P-ATP/well) are incubated in a total volume of 50 μl (60 mM Hepes, 10 mM MgCl2, 1.2 mM Dithiothreitol, 0.02% Brij35, 0.1% BSA, pH 7.5) with or without test compound for 1 hours at 30° C. The reaction is stopped with 25 μl 200 mM EDTA. After 30 Min at 30° C. the liquid is removed and each well washed thrice with 100 μl 0.9% sodium chloride solution. Non-specific reaction is determined in presence of 0.1 μM Staurosporine. Radioactivity is measured with Topcount (when using Flashplates) or with LEADseeker (when using Image-Flashplates) respectively. Results (e.g. IC50-values) are calculated with program tools provided by the IT-department (e.g. Symyx Assay Explorer, Genedata Screener).
Enzymatic Assays Using the Caliper LifeSciences Technology
The assays described here are performed on the Caliper Life Sciences LC3000 system This technology provides data on enzyme activity via measurement of the relative amounts of phosphorylated or unphosphorylated fluorescently labelled substrate peptide at the end of an enzymatic reaction.
These different states of peptide are resolved by applying a potential difference across the sample. The presence of the charged phosphate group on the product (as opposed to the substrate) causes a different peptide mobility between the two peptides. This is visualized by excitation of the fluorescent label on the substrate and product peptides and represented as peaks within the analysis software.
In order to measure inhibitor activity of kinase inhibitors on this technology, a TTP Mosquito liquid handling instrument is used to place 0.25 ul of the appropriate concentration of inhibitor in 100% DMSO (for a dose response curve calculation) into each well of a 384-well plate. To this reaction components are added to a final volume of 25 ul. The table below indicates the sequences and concentrations for the assays described in this report. Standard components are 1 mM DTT (Sigma, D0632), 1 mM MgCl2 (Sigma, M1028), 100 mM HEPES pH 7.5 (Calbiochem, 391338), 0.015% Brij-35 (Sigma, B4184).
The reaction is incubated for 90 min at 25 C, and then stopped by the addition of 70 ul of Stop buffer (100 mM HEPES pH 7.5, 0.015% Brij-35, 10 mM EDTA (Sigma, E7889)).
The plate is read on a Caliper LC 3000 in an Off-Chip mobility shift assay format, on a 12-sipper chip. Unphosphorylated substrate and phosphorylated product peptide resolve as separate peaks allowing direct measurement of percentage of conversion of substrate to product. The percent conversion can be plotted against concentration of inhibitor to produce a sigmoidal dose response curve, from which an IC50 can be calculated using GeneData Condoseo or a similar product.

GCN2 = GCN2 (Homo sapiens, UniProt Q9P2K8); test: GCN2 enzyme assay (TR-FRET Lanthascreen, GFP-eIF2alpha substrate); format: biochemical
Description: GCN2: Assay Principle & Conditions
This assay can quantificate the activity of the serin kinase GCN2 (general control non-derepressible-2).
This kinase is involved in the stress metabolism of cells. It is activated upon starvation (amino acid depletion). Its natural substrate is eIF2a (eukaryotic initiation factor 2 alpha subunit), a translation factor, which gets activated (phosphorylated) by GCN2 in case of an amino acid bottleneck in the cells. This in turn leads to a halt of the protein synthesis. Inhibition of GCN2 results in stopping this mechanism: The cell can not stop protein production upon “starvation” stress.
The assay is run in two steps: the enzymatic reaction and the detection step. In the first step GCN2 is incubated with 10 μM ATP and 80 nM of the GFP-labelled substrate eIF2alpha at room temperature.
The enzymatic reaction is stopped by addition of EDTA. The amount of phosphorylated eIF2alpha is determined by TR-FRET (Lanthascreen): A complex is formed consisting of antibody and GFP labelled phospho-eIF2a, which allows a FRET upon exitation at 340 nm.
Final Concentrations in the Enzymatic Reaction • Hepes, pH 7.0 50 mM • MgCl2 10 mM • MnCl2 5 mM • BSA 0.1% • DMSO 1% • ATP 10 uM • DTT 2 mM • GFP-eIF2a 80 nM (substrate) • GCN2 30 nM (enzyme)

[1] = 100% corresponds to zero effect, −50% corresponds to IC50

Chain of GCN2 (Q9P2K8 whole entry): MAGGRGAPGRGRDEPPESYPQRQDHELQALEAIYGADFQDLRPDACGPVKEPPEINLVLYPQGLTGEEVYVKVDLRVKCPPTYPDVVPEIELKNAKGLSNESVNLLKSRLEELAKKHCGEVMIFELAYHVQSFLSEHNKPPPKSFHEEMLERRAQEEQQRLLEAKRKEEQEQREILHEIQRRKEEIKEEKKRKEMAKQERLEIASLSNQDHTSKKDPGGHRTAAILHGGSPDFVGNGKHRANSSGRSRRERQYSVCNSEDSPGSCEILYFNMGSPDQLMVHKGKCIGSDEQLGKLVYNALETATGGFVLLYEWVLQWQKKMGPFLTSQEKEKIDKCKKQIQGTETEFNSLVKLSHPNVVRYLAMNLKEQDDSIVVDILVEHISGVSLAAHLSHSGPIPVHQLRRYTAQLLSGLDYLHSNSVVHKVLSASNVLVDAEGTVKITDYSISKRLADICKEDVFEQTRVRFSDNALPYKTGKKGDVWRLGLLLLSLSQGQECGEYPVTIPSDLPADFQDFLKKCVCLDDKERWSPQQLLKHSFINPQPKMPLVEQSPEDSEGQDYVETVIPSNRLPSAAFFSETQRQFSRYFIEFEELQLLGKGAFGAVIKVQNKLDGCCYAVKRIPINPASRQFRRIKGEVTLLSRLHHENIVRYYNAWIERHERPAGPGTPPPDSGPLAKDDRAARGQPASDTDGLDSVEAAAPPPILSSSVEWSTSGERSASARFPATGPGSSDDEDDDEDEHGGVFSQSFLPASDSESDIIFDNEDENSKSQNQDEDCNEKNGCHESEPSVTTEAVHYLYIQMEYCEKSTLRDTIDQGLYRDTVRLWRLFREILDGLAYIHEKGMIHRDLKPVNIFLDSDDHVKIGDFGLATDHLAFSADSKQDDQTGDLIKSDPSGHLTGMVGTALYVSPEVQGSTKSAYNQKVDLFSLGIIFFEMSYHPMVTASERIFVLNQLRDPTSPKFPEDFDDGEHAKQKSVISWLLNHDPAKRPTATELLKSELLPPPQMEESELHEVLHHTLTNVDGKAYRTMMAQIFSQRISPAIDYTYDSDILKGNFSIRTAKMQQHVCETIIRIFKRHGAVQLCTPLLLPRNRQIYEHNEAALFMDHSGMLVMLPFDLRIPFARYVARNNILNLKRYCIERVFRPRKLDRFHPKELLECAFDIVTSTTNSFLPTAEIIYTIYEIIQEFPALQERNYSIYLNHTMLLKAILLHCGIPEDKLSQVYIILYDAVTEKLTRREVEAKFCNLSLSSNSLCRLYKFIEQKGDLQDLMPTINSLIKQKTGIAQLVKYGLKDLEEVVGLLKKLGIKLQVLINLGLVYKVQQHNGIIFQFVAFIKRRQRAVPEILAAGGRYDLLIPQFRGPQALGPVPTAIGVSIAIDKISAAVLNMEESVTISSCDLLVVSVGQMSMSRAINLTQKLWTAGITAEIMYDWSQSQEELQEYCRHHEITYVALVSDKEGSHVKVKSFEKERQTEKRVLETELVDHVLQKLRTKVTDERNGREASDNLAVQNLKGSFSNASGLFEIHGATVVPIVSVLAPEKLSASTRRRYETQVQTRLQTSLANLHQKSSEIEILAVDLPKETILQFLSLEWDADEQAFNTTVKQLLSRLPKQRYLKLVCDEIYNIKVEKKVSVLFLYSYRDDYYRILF

Compound | IC50 (SYK) | IC50 (GCN2) | SYK (enzyme assay) % at 3 μM (SYK; [1]) | SYK (enzyme assay) % at 0.3 μM (SYK; at 0.3 μM, 100% corresponds to zero effect, −50% corresponds to IC50) | GCN2 (enzyme assay) % at 10 μM (GCN2; at 10 μM, 100% corresponds to zero effect, −50% corresponds to IC50)
Cn1cc(-c2cncc3nc(Nc4ccc(CN5CCOCC5)cc4)nn23)cn1 [Compound A61, [5-(1-methyl-1H-pyrazol-4-yl)-[1,2,4]triazolo[1,5-a]pyrazin-2-yl]-(4-morpholin-4-ylmethyl-phenyl)-amine] | 1000 to 5000 nM | < 1000 nM |  |  | 
CN1C(=O)Cc2cc(Nc3nc4cncc(-c5cnn(CCN6CCOCC6)c5)n4n3)ccc21 [Compound A52, 1-methyl-5-{5-[1-(2-morpholin-4-yl-ethyl)-1H-pyrazol-4-yl]-[1,2,4]triazolo[1,5-a]pyrazin-2-ylamino}-1,3-dihydro-indol-2-one] |  | 1000 to 5000 nM | −32@3% |  | 
COc1cc(Nc2nc3cncc(-c4cnn(CCN5CCOCC5)c4)n3n2)ccc1N1CCN(C)CC1 [Compound A75, [3-methoxy-4-(4-methyl-piperazin-1-yl)-phenyl]-{5-[1-(2-morpholin-4-yl-ethyl)-1H-pyrazol-4-yl]-[1,2,4]triazolo[1,5-a]pyrazin-2-yl}-amine] |  | < 1000 nM | −21@3% |  | 
COc1cc(Nc2nc3cncc(-c4cnn(C)c4)n3n2)ccc1NC(C)=O [Compound A85, N-{2-methoxy-4-[5-(1-methyl-1H-pyrazol-4-yl)-[1,2,4]triazolo[1,5-a]pyrazin-2-ylamino]-phenyl}-acetamide] | 1000 to 5000 nM | < 1000 nM |  |  | 
CN(C)Cc1nc2cc(Nc3nc4cncc(-c5cnn(C)c5)n4n3)ccc2[nH]1 [Compound A14] | 1000 to 5000 nM | < 1000 nM |  |  | 
CC1(C)C(=O)Nc2cc(Nc3nc4cncc(-c5cnc6ccccc6c5)n4n3)ccc21 [Compound A9, 3,3-dimethyl-6-(5-quinolin-3-yl-[1,2,4]triazolo[1,5-a]pyrazin-2-ylamino)-1,3-dihydro-indol-2-one] | 1000 to 5000 nM | 1000 to 5000 nM |  |  | 
Cc1ncc2nc(Nc3ccc(N4CCOCC4)cc3)nn2c1-c1cnn(C)c1 [Compound A44, [6-methyl-5-(1-methyl-1H-pyrazol-4-yl)-[1,2,4]triazolo[1,5-a]pyrazin-2-yl]-(4-morpholin-4-yl-phenyl)-amine] | 1000 to 5000 nM | 5000 to 10000 nM |  |  | 
Cc1ccc(-c2cncc3nc(Nc4ccc(N5CCOCC5)cc4)nn23)o1 [Compound A55, [5-(5-methyl-furan-2-yl)-[1,2,4]triazolo[1,5-a]pyrazin-2-yl]-(4-morpholin-4-yl-phenyl)-amine] | < 1000 nM | < 1000 nM |  |  | 
COc1cc(Nc2nc3cncc(-c4cnn(C)c4)n3n2)ccc1C(=O)NCC1CC1 [Compound A70, N-cyclopropylmethyl-2-methoxy-4-[5-(1-methyl-1H-pyrazol-4-yl)-[1,2,4]triazolo[1,5-a]pyrazin-2-ylamino]-benzamide] |  | < 1000 nM |  | −12@0.3% | 
Cn1cc(-c2ncc3nc(Nc4ccc(N5CCOCC5)cc4)nn3c2-c2cnn(C)c2)cn1 [Compound A46, [5,6-Bis-(1-methyl-1H-pyrazol-4-yl)-[1,2,4]triazolo[1,5-a]pyrazin-2-yl]-(4-morpholin-4-yl-phenyl)-amine] | 1000 to 5000 nM |  |  |  | −8@10%
CN1CCN(c2ncc(Nc3nc4cncc(-c5cnn(C)c5)n4n3)cn2)CC1 [Compound A88, [2-(4-methyl-piperazin-1-yl)-pyrimidin-5-yl]-[5-(1-methyl-1H-pyrazol-4-yl)-[1,2,4]triazolo[1,5-a]pyrazin-2-yl]-amine] |  | < 1000 nM | −13@3% |  | 
Cn1cc(-c2cncc3nc(Nc4ccc(C5(C#N)CC5)cc4)nn23)cn1 [Compound A47, 1-{4-[5-(1-methyl-1H-pyrazol-4-yl)-[1,2,4]triazolo[1,5-a]pyrazin-2-ylamino]-phenyl}-cyclopropanecarbonitrile] | < 1000 nM | < 1000 nM |  |  | 
Cn1cc(-c2cncc3nc(Nc4ccc(S(C)(=O)=O)cc4)nn23)cn1 [Compound A11, (4-methanesulfonyl-phenyl)-[5-(1-methyl-1H-pyrazol-4-yl)-[1,2,4]triazolo[1,5-a]pyrazin-2-yl]-amine] | 1000 to 5000 nM | 1000 to 5000 nM |  |  | 
c1cc(N2CCOCC2)ccc1Nc1nc2cncc(-c3cn[nH]c3)n2n1 [Compound A31, (4-morpholin-4-yl-phenyl)-[5-(1H-pyrazol-4-yl)-[1,2,4]triazolo[1,5-a]pyrazin-2-yl]-amine] | < 1000 nM | 1000 to 5000 nM |  |  | 
c1cc(N2CCOCC2)ccc1Nc1nc2cncc(-c3ccc(CN4CCOCC4)s3)n2n1 [Compound A62, [5-(5-morpholin-4-ylmethyl-thiophen-2-yl)-[1,2,4]triazolo[1,5-a]pyrazin-2-yl]-(4-morpholin-4-yl-phenyl)-amine] |  | < 1000 nM | −5@3% |  | 
Clc1cn2nc(Nc3cccnc3)nc2cn1 [Compound A20] |  | 1000 to 5000 nM | 1@3% |  | 
Cc1cc(Nc2nc3cncc(-c4cnn(C)c4)n3n2)ccc1C(=O)NCC1CC1 [Compound A69, N-cyclopropylmethyl-2-methyl-4-[5-(1-methyl-1H-pyrazol-4-yl)-[1,2,4]triazolo[1,5-a]pyrazin-2-ylamino]-benzamide] | 1000 to 5000 nM | < 1000 nM |  |  | 
COc1cc(Nc2nc3cncc(-c4cccc(NS(C)(=O)=O)c4)n3n2)ccc1N1CCN(C)CC1 [Compound A95, N-(3-{2-[3-methoxy-4-(4-methyl-piperazin-1-yl)-phenylamino]-[1,2,4]triazolo[1,5-a]pyrazin-5-yl}-phenyl)-methanesulfonamide] | 1000 to 5000 nM | < 1000 nM |  |  | 
Cn1cc(-c2cncc3nc(Nc4ccc(-c5ccncc5)cc4)nn23)cn1 [Compound A60, [5-(1-methyl-1H-pyrazol-4-yl)-[1,2,4]triazolo[1,5-a]pyrazin-2-yl]-(4-pyridin-4-yl-phenyl)-amine] | < 1000 nM | 1000 to 5000 nM |  |  | 
Cc1cc(Nc2nc3cncc(-c4cnc5ccccc5c4)n3n2)ccc1N1CCN(C)CC1 [Compound A8, [3-methyl-4-(4-methyl-piperazin-1-yl)-phenyl]-(5-quinolin-3-yl-[1,2,4]triazolo[1,5-a]pyrazin-2-yl)-amine] | 1000 to 5000 nM | 1000 to 5000 nM |  |  | 
Cc1cc(Nc2nc3cncc(-c4ccc5c(cnn5C)c4)n3n2)ccc1N1CCN(C)CC1 [Compound A4, [5-(1-methyl-1H-indazol-5-yl)-[1,2,4]triazolo[1,5-a]pyrazin-2-yl]-[3-methyl-4-(4-methyl-piperazin-1-yl)-phenyl]-amine] | < 1000 nM | < 1000 nM |  |  | 
Cc1cc(Nc2nc3cncc(-c4cnn(CCN5CCOCC5)c4)n3n2)ccc1N1CCN(C)CC1 [Compound A50, [3-methyl-4-(4-methyl-piperazin-1-yl)-phenyl]-{5-[1-(2-morpholin-4-yl-ethyl)-1H-pyrazol-4-yl]-[1,2,4]triazolo[1,5-a]pyrazin-2-yl}-amine] |  | < 1000 nM | −32@3% |  | 
Cn1cc(-c2cncc3nc(Nc4ccc(C(=O)N5CCOCC5)cc4)nn23)cn1 [Compound A66, {4-[5-(1-methyl-1H-pyrazol-4-yl)-[1,2,4]triazolo[1,5-a]pyrazin-2-ylamino]-phenyl}-morpholin-4-yl-methanone] | 1000 to 5000 nM | < 1000 nM |  |  | 
